Measurements published in patent US20160319277A1, “METHODS OF IMPROVED PROTEIN PRODUCTION USING MIRNAs AND SIRNAs” (THE JOHNS HOPKINS UNIVERSITY, priority 2015, published 2016).

Legend:
HEK-CMV-Luc2-Hygro cells [1] = test: High-throughput genome-wide siRNA screen and validation screen for luciferase expression; type: cell-based, human; conditions: Table 6; polyamine pathway gene siRNAs
Procedure, shortened: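 HEK cells with CMV-driven luciferase were reverse-transfected with 0.8 pmol siRNA per well (3 per gene) via RNAiMax and grown 72 h at 37 °C. Duplicate wells read for luciferase (ONE-Glo) and viability (CellTiter-Glo). Values given as % of plate negative-control median with MAD-based z-scores; hits with ≥2 siRNAs at z>3 retested using 3 new siRNAs.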

HEK-CMV-Luc2-Hygro cells [2] = test: Effect of exogenous polyamines on luciferase expression and cell growth; conditions: for effect of higher concentrations on luciferase expression and viable cell: concentrations above the optimum; for concentration with inhibitory effects: culture medium with ruminant serum
Experimental: FIG. 13: Effect of exogenous polyamines on luciferase expression and cell growth. Two different passages of cells were treated with the indicated concentrations of polyamines and each biological sample was measured in triplicates. Error bars represent SEM.
To further verify this, the impacts of exogenously added polyamines on luciferase expression level and viable cell number were determined.

[3] = tested on: T-REx-293-NTSR1-GFP cells; test: High-throughput human miRNA mimic library screen, image-based per cell green fluorescence (NTSR1-GFP expression); conditions: per cell green fluorescence intensity; for MAD-based z-score: 72 h after transfection plus 24 h tetracycline induction
Experimental: T-REx-293-NTSR1-GFP cells were screened with a miRNA mimic library (Qiagen) based on Sanger miRBase™ 13.0 and consisting of 875 miRNAs mimics. For transfection, 0.8 pmol of each mimic was spotted to 384 well plate wells (Corning) and 20 μL of serum-free DMEM containing 0.1 μL of Lipofectamine™ RNAiMax (Life Technologies) was then added to each well. This lipid-miRNA mixture was incubated at ambient temperature for 30 min prior to adding 2000 cells in 20 μL of DMEM containing 20% certified FBS (Gibco). Transfected cells were incubated at 37° C. in 5% CO2 for 72 hours and induced with 1 μg/mL tetracycline for 24 hours for NTSR1-GFP expression. Cells were then fixed with 2% paraformaldehyde (Electron Microscopy Sciences), stained with Hoechst™ 33342 (Life Technologies) for 45 minutes and gently washed with PBS. Plates were imaged with an ImageXpress Micro XL™ (Molecular Devices). Total cell number and per cell green fluorescence intensity were calculated using MetaXpress™ software (Molecular Devices) employing the Multi-Wavelength Cell Scoring™ application module. […] A full column of positive control siRNA targeting GFP (GFP-22 siRNA, Qiagen) was also used as on-plate reference for transfection efficiency. The median absolute deviation (MAD)-based z-score was calculated for each sample.

[4] = tested on: CMV-Luc2-HygroHEK293 cell line; test: Validation of miRNAs with luciferase-expressing cells (ONE-Glo / CellTiter-Glo, 12-well); type: cell-based, human; conditions: 40 nM miRNA, 72 h
Experimental: CMV-Luc2-HygroHEK293 cell line constitutively expressing luciferase is purchased from Promega. Validation transfections were performed in 12-well plates with miScript miRNA mimics (Qiagen, Cat. No. 219600-S0), SilencerSelect™ Negative Control #2 and lethal control siRNA (Qiagen AllStars Cell Death Control™) served as a control for transfection efficiency. Cells were transfected in duplicates as described above in the screening method with the following modification: 0.1 million cells were transfected with 40 nM miRNA using 6.25 ul Lipofectamine™ RNAiMax in a total volume of 1 mL of media. 72 hours after transfection, 500 μL of ONE-Glo™ Reagent (Promega) was added to one set of replicates for luciferase activity quantification and 500 μL of CellTiter-Glo™ Reagent (Promega) was added to the second set of replicates for viable cell density measurement. All plates were incubated at room temperature for 20 minutes to stabilize luminescent signal and then measured with SpectraMax i3™ plate reader (Molecular Devices). Per cell luciferase production was calculated from overall luciferase activity and viable cell number.

HEK-GPC3-hFc cell line = test: Validation of miRNAs with GPC3-hFc-expressing cells (ELISA and cell count); type: cell-based, human; conditions: 40 nM miRNA, 6 days after transfection, versus siN.C.
Experimental: HEK-GPC3-hFc cell line constitutively secreting glypican-3 hFc-fusion protein (GPC3-hFc) was a gift from the National Cancer Institute of the NIH. Cells were grown in DMEM supplemented with 10% FBS in a humidified incubator set at 37° C. and 5% CO2.
Cells were transfected in 12-well plates as described above in the screening method with the following modification: 0.15 million cells were transfected with 40 nM miRNA using 6.25 ul Lipofectamine™ RNAiMax in a total volume of 1 mL of media. 6 days after transfection, cell culture supernatant was collected and cleared using centrifuge for GPC3-hFc concentration determination with ELISA and cells were detached and counted by trypan blue exclusion using a CEDEX™ cell quantification system (Roche, Mannheim, Germany). Per cell GPC3-hFc production can be calculated from overall GPC3-hFc yield and viable cell number.
AffiniPure™ F(ab′)2 Fragment Goat Anti-Human IgG (min X Bov, Ms, Rb Sr Prot, Cat. 109-006-170, Jackson Immunology) was used to coat a 96-well plate at 5 μg/mL in PBS buffer, 50 μL per well, at 4° C. overnight. After the plate was blocked with 2% BSA in PBS buffer, pre-diluted cell culture supernatant was added, and the plate was incubated at room temperature for one hour to allow binding to occur. After the plate was washed twice with PBS containing 0.05% Tween 20, Peroxidase-conjugated AffiniPure™ Goat-anti-uman IgG (Cat. 109-035-098, Jackson Immunology) was added at 1:4000 dilutions, 50 ul/well. Following incubating at room temperature for one hour, the plate was washed 4 times and detected with Peroxidase Substrate System (KPL).

Compound | Signal relative to negative control (%) [3] [%] | MAD-based z-score [3] | also measured
224 (GCAUGUAUCUGCUUGAUAUTT; chemistry not given here; listed as Homo sapiens) [compound 224] | – | – | Luciferase activity (%) (HEK-CMV-Luc2-Hygro cells [1]): 20.0%; Per cell luciferase yield (%) (HEK-CMV-Luc2-Hygro cells [1]): 39.4%; Viable cell number (%) (HEK-CMV-Luc2-Hygro cells [1]): 50.7%
225 (GCUUGCAGUUAAUAUCAUUTT; chemistry not given here; listed as Homo sapiens) [compound 225] | – | – | Luciferase activity (%) (HEK-CMV-Luc2-Hygro cells [1]): 28.4%; Per cell luciferase yield (%) (HEK-CMV-Luc2-Hygro cells [1]): 46.7%; Viable cell number (%) (HEK-CMV-Luc2-Hygro cells [1]): 60.8%
226 (CACUCGCAGUUAAUAUCAUTT; chemistry not given here; listed as Homo sapiens) [compound 226] | – | – | Luciferase activity (%) (HEK-CMV-Luc2-Hygro cells [1]): 25.2%; Per cell luciferase yield (%) (HEK-CMV-Luc2-Hygro cells [1]): 39.0%; Viable cell number (%) (HEK-CMV-Luc2-Hygro cells [1]): 64.6%
227 (CGAUGAACAUGUUAGACAUTT; chemistry not given here; listed as Homo sapiens) [compound 227] | – | – | Luciferase activity (%) (HEK-CMV-Luc2-Hygro cells [1]): 30.4%; Per cell luciferase yield (%) (HEK-CMV-Luc2-Hygro cells [1]): 42.2%; Viable cell number (%) (HEK-CMV-Luc2-Hygro cells [1]): 72.1%
228 (GCCCUCUGUUGGAUAUCUATT; chemistry not given here; listed as Homo sapiens) [compound 228] | – | – | Luciferase activity (%) (HEK-CMV-Luc2-Hygro cells [1]): 45.6%; Per cell luciferase yield (%) (HEK-CMV-Luc2-Hygro cells [1]): 63.2%; Viable cell number (%) (HEK-CMV-Luc2-Hygro cells [1]): 72.1%
NCCCCN [putrescine] | – | – | increase of luciferase expression (HEK-CMV-Luc2-Hygro cells [2]; added to medium at 100 μM): up to 40%; enhanced growth (HEK-CMV-Luc2-Hygro cells [2]; addition at 50 μM): 10%; effect of higher concentrations on luciferase expression and viable cell (HEK-CMV-Luc2-Hygro cells [2]): did not lead to further enhancement of luciferase production
NCCCCNCCCN [spermidine] | – | – | increase in cell growth (HEK-CMV-Luc2-Hygro cells [2]; at 10 μM): 24%; increase in luciferase expression (HEK-CMV-Luc2-Hygro cells [2]; at 20 μM): 36%; concentration with inhibitory effects (HEK-CMV-Luc2-Hygro cells [2]): > 100 µM
NCCCNCCCCNCCCN [spermine] | – | – | increase in luciferase expression (HEK-CMV-Luc2-Hygro cells [2]; at 10 μM): 16%; effect of higher concentrations on luciferase expression and viable cell (HEK-CMV-Luc2-Hygro cells [2]): caused reduction in both luciferase expression and viable cell; concentration with inhibitory effects (HEK-CMV-Luc2-Hygro cells [2]): > 20 µM
AAACCUGUGUUGUUCAAGAGUC (listed as RNA, chemistry not given here; listed as Homo sapiens) [miR-649, human miRNA mimic] | 150 | 2.0 | –
AACUGGCCCUCAAAGUCCCGCU (listed as RNA, chemistry not given here; listed as Homo sapiens) [miR-193b-3p, human miRNA mimic] | 166 | 2.5 | –
AACUGGCCUACAAAGUCCCAGU (listed as RNA, chemistry not given here; listed as Homo sapiens) [miR-193a-3p, human miRNA mimic] | 156 | 2.3 | –
AAGCUGCCAGUUGAAGAACUGU (listed as RNA, chemistry not given here; listed as Homo sapiens) [miR-22-3p, human miRNA mimic] | 158 | 2.3 | cell growth (viable cell density) [4]: inhibited cell growth; overall production of luciferase higher than negative control siN.C. [4]: 127%; change of overall GPC3-hFc production (HEK-GPC3-hFc cell line): effectively enhanced overall GPC3-hFc; improvement of per cell GPC3-hFc secretion (HEK-GPC3-hFc cell line): enhanced per cell GPC3-hFc secretion
ACAGAUUCGAUUCUAGGGGAAU (listed as RNA, chemistry not given here; listed as Homo sapiens) [miR-10b-3p, human miRNA mimic] | 162 | 2.4 | –
ACUCUUUCCCUGUUGCACUAC (listed as RNA, chemistry not given here; listed as Homo sapiens) [miR-130b-5p, human miRNA mimic] | 178 | 2.9 | –
AGGAGGCAGCGCUCUCAGGAC [miR-650] | 163 | 2.5 | –
CAGUGCAAUAGUAUUGUCAAAGC (listed as RNA, chemistry not given here; listed as Homo sapiens) [miR-301a-3p, human miRNA mimic] | 176 | 2.9 | –
CAUCCCUUGCAUGGUGGAGGG (listed as RNA, chemistry not given here; listed as Homo sapiens) [miR-188-5p, human miRNA mimic] | 177 | 2.9 | –
CUAUACAGUCUACUGUCUUUCC (listed as RNA, chemistry not given here; listed as Homo sapiens) [let-7f-2-3p, human miRNA mimic] | 178 | 3.0 | –
CUGCCAAUUCCAUAGGUCACAG (listed as RNA, chemistry not given here; listed as Homo sapiens) [miR-192-3p, human miRNA mimic] | 148 | 2.0 | –
CUGUGCGUGUGACAGCGGCUGA [miR-210-3p] | 183 | 3.2 | –
GCUACUUCACAACACCAGGGCC (listed as RNA, chemistry not given here; listed as Homo sapiens) [miR-138-1-3p, human miRNA mimic] | 167 | 2.5 | –
GUGUGUGGAAAUGCUUCUGC (listed as RNA, chemistry not given here; listed as Homo sapiens) [miR-147a, human miRNA mimic] | 168 | 2.6 | –
UCCGUCUCAGUUACUUUAUAGC (listed as RNA, chemistry not given here; listed as Homo sapiens) [miR-340-3p, human miRNA mimic] | 159 | 2.3 | –
UGAGGUAGUAGGUUGUAUGGUU (listed as RNA, chemistry not given here; listed as Homo sapiens) [let-7c-5p, human miRNA mimic] | 168 | 2.6 | –
UGAGUGCCGGUGCCUGCCCUG (listed as RNA, chemistry not given here; listed as Homo sapiens) [miR-1909-5p, human miRNA mimic] | 169 | 2.6 | –
UGGUUGUAGUCCGUGCGAGAAUA (listed as RNA, chemistry not given here; listed as Homo sapiens) [miR-1974, human miRNA mimic] | 201 | 3.6 | –
